{"source": "patent US20140220134A1", "about": "“METHOD FOR TREATING DIABETES WITH EXTENDED RELEASE FORMULATION OF GLP-1 RECEPTOR AGONISTS” (Astrazeneca Pharamceuticals LP, priority 2011, published 2014)", "key": {"[1]": {"experiment": "Fraction of drug in microparticles and in MCT oil carrier after storage", "type": "physicochemical", "from_the_text": "Mixtures ranged from 2% to 10% w/w of the active pharmaceutical ingredient. The mixed powder was transferred to an extruder where the temperature was adjusted according to the chosen polymer. Some polymers needed higher temperatures to produce a melt with good flow properties. The extruder contained twin screws that moved clockwise to produce efficient mixing. The material was extruded through a 1.5 mm orifice, collected, cooled at room temperature, and cut into short strands about 1-2 inches long. These strands were then fed into a 12-tooth rotor mill, followed by a sieving step to produce microparticles of about 20 to 100 microns. The microparticles were collected and stored at 5° C. until further use.\nExperimental samples were prepared by dispersing about 50 mg of the microparticles into 0.75 mL of a MCT oil carrier. The samples were stored at 5° C. and 25° C. for two days, two weeks, or one month, at which times representative samples were tested. The fraction of drug that remained in the microparticles and the fraction of drug that partitioned into the MCT oil carrier were determined. Briefly, the samples were centrifuged to separate the microparticles from the MCT oil carrier. Each portion was treated independently to determine the amount of drug it contained. Results are reported on the basis of the percent residing in each independent portion."}, "Solubility in MCT oil": {"experiment": "Solubility in MCT oil", "type": "physicochemical", "settings": "oil or lipid"}, "[2]": {"settings": "PLGA copolymer, 1 Month Storage at 5° C."}, "[3]": {"settings": "PLGA copolymer, 1 Month Storage at 25° C."}, "[4]": {"settings": "PLGA copolymer, 2 Days Storage at 5° C."}, "[5]": {"settings": "PLGA copolymer, 2 Days Storage at 25° C."}, "[6]": {"settings": "polycaprolactone/PLGA copolymer, Two Weeks Storage, 5° C."}, "[7]": {"settings": "polycaprolactone/PLGA copolymer, Two Weeks Storage, 25° C."}}, "note": "Counter-ions that a name gives are not always drawn."}
{"compound": "davalintide", "values": [{"measurement": "drug in MCT Carrier", "setting": "[1]; [2]", "value": 0.6, "unit": "%"}, {"measurement": "drug in Microparticles", "setting": "[1]; [2]", "value": 99.4, "unit": "%"}, {"measurement": "drug in MCT Carrier", "setting": "[1]; [3]", "value": 0.0, "unit": "%"}, {"measurement": "drug in Microparticles", "setting": "[1]; [3]", "value": 100.0, "unit": "%"}, {"measurement": "drug in MCT Carrier", "setting": "[1]; [4]", "value": 0.2, "unit": "%"}, {"measurement": "drug in Microparticles", "setting": "[1]; [4]", "value": 99.8, "unit": "%"}, {"measurement": "drug in MCT Carrier", "setting": "[1]; [5]", "value": 0.0, "unit": "%"}, {"measurement": "drug in Microparticles", "setting": "[1]; [5]", "value": 100.0, "unit": "%"}]}
{"compound": "CN(C)c1ccc(O)c2c1C[C@H]1C[C@H]3[C@H](N(C)C)C(O)=C(C(N)=O)C(=O)[C@@]3(O)C(O)=C1C2=O", "note": "[minocycline, minocycline HCl]", "values": [{"measurement": "drug in MCT Carrier", "setting": "[1]; [2]", "value": 0.1, "unit": "%"}, {"measurement": "drug in Microparticles", "setting": "[1]; [2]", "value": 99.9, "unit": "%"}, {"measurement": "drug in MCT Carrier", "setting": "[1]; [3]", "value": 0.4, "unit": "%"}, {"measurement": "drug in Microparticles", "setting": "[1]; [3]", "value": 99.6, "unit": "%"}, {"measurement": "drug in MCT Carrier", "setting": "[1]; [4]", "value": 0.9, "unit": "%"}, {"measurement": "drug in Microparticles", "setting": "[1]; [4]", "value": 99.1, "unit": "%"}, {"measurement": "drug in MCT Carrier", "setting": "[1]; [5]", "value": 0.6, "unit": "%"}, {"measurement": "drug in Microparticles", "setting": "[1]; [5]", "value": 99.4, "unit": "%"}]}
{"compound": "O=C([O-])c1ccccc1O.[Na+]", "note": "[sodium salicylate]", "values": [{"measurement": "drug in MCT Carrier", "setting": "[1]; [2]", "value": 1.3, "unit": "%"}, {"measurement": "drug in Microparticles", "setting": "[1]; [2]", "value": 98.7, "unit": "%"}, {"measurement": "drug in MCT Carrier", "setting": "[1]; [3]", "value": 1.5, "unit": "%"}, {"measurement": "drug in Microparticles", "setting": "[1]; [3]", "value": 98.5, "unit": "%"}, {"measurement": "drug in MCT Carrier", "setting": "[1]; [4]", "value": 0.5, "unit": "%"}, {"measurement": "drug in Microparticles", "setting": "[1]; [4]", "value": 99.5, "unit": "%"}, {"measurement": "drug in MCT Carrier", "setting": "[1]; [5]", "value": 2.3, "unit": "%"}, {"measurement": "drug in Microparticles", "setting": "[1]; [5]", "value": 97.7, "unit": "%"}]}
{"compound": "bovine serum albumin", "values": [{"measurement": "drug in MCT Carrier", "setting": "[1]; [2]", "value": 0.0, "unit": "%"}, {"measurement": "drug in Microparticles", "setting": "[1]; [2]", "value": 100.0, "unit": "%"}, {"measurement": "drug in MCT Carrier", "setting": "[1]; [3]", "value": 0.0, "unit": "%"}, {"measurement": "drug in Microparticles", "setting": "[1]; [3]", "value": 100.0, "unit": "%"}, {"measurement": "drug in MCT Carrier", "setting": "[1]; [4]", "value": 0.0, "unit": "%"}, {"measurement": "drug in Microparticles", "setting": "[1]; [4]", "value": 100.0, "unit": "%"}, {"measurement": "drug in MCT Carrier", "setting": "[1]; [5]", "value": 0.0, "unit": "%"}, {"measurement": "drug in Microparticles", "setting": "[1]; [5]", "value": 100.0, "unit": "%"}]}
{"compound": "O=C(O)c1ccccc1O", "note": "[salicylic acid]", "values": [{"measurement": "drug in MCT Carrier", "setting": "[1]; [2]", "value": 0.1, "unit": "%"}, {"measurement": "drug in Microparticles", "setting": "[1]; [2]", "value": 99.9, "unit": "%"}, {"measurement": "drug in MCT Carrier", "setting": "[1]; [3]", "value": 0.2, "unit": "%"}, {"measurement": "drug in Microparticles", "setting": "[1]; [3]", "value": 99.8, "unit": "%"}, {"measurement": "drug in MCT Carrier", "setting": "[1]; [4]", "value": 1.1, "unit": "%"}, {"measurement": "drug in Microparticles", "setting": "[1]; [4]", "value": 98.9, "unit": "%"}, {"measurement": "drug in MCT Carrier", "setting": "[1]; [5]", "value": 0.9, "unit": "%"}, {"measurement": "drug in Microparticles", "setting": "[1]; [5]", "value": 99.1, "unit": "%"}, {"measurement": "solubility", "setting": "Solubility in MCT oil", "value": "> 30", "unit": "mg/mL"}]}
{"compound": "insulin", "values": [{"measurement": "drug in MCT Carrier", "setting": "[1]; [2]", "value": 0.5, "unit": "%"}, {"measurement": "drug in Microparticles", "setting": "[1]; [2]", "value": 99.5, "unit": "%"}, {"measurement": "drug in MCT Carrier", "setting": "[1]; [3]", "value": 0.7, "unit": "%"}]}
{"compound": "CC[C@H](C)[C@H](NC(=O)[C@@H]1CCCN1C(=O)CNC(=O)[C@H](Cc1ccccc1)NC(=O)[C@H](CC(N)=O)NC(=O)[C@H](CC(N)=O)NC(=O)[C@H](CO)NC(=O)[C@H](CO)NC(=O)[C@H](Cc1c[nH]cn1)NC(=O)[C@@H](NC(=O)[C@H](CC(C)C)NC(=O)[C@H](Cc1ccccc1)NC(=O)[C@H](CC(N)=O)NC(=O)[C@H](C)NC(=O)[C@H](CC(C)C)NC(=O)[C@H](CCCNC(=N)N)NC(=O)[C@H](CCC(N)=O)NC(=O)[C@@H](NC(=O)[C@H](C)NC(=O)[C@@H]1CSSC[C@H](NC(=O)[C@@H](N)CCCCN)C(=O)N[C@@H](CC(N)=O)C(=O)N[C@@H]([C@@H](C)O)C(=O)N[C@@H](C)C(=O)N[C@@H]([C@@H](C)O)C(=O)N1)[C@@H](C)O)C(C)C)C(=O)N[C@@H](CC(C)C)C(=O)N1CCC[C@H]1C(=O)N1CCC[C@H]1C(=O)N[C@H](C(=O)N[C@@H](CC(N)=O)C(=O)N[C@H](C(=O)NCC(=O)N[C@@H](CO)C(=O)N[C@@H](CC(N)=O)C(=O)N[C@H](C(=O)N[C@@H](Cc1ccc(O)cc1)C(N)=O)[C@@H](C)O)C(C)C)[C@@H](C)O", "note": "[pramlintide]", "values": [{"measurement": "drug in MCT Carrier", "setting": "[1]; [2]", "value": 0.3, "unit": "%"}, {"measurement": "drug in Microparticles", "setting": "[1]; [2]", "value": 99.7, "unit": "%"}, {"measurement": "drug in MCT Carrier", "setting": "[1]; [3]", "value": 0.0, "unit": "%"}, {"measurement": "drug in Microparticles", "setting": "[1]; [3]", "value": 100.0, "unit": "%"}, {"measurement": "drug in MCT Carrier", "setting": "[1]; [4]", "value": 0.0, "unit": "%"}, {"measurement": "drug in Microparticles", "setting": "[1]; [4]", "value": 100.0, "unit": "%"}, {"measurement": "drug in MCT Carrier", "setting": "[1]; [5]", "value": 0.0, "unit": "%"}, {"measurement": "drug in Microparticles", "setting": "[1]; [5]", "value": 100.0, "unit": "%"}, {"measurement": "drug in MCT Carrier", "setting": "[1]; [6]", "value": 0.0, "unit": "%"}, {"measurement": "drug in Microparticles", "setting": "[1]; [6]", "value": 100.0, "unit": "%"}, {"measurement": "drug in MCT Carrier", "setting": "[1]; [7]", "value": 0.0, "unit": "%"}, {"measurement": "drug in Microparticles", "setting": "[1]; [7]", "value": 100.0, "unit": "%"}]}
{"compound": "metreleptin", "values": [{"measurement": "drug in MCT Carrier", "setting": "[1]; [2]", "value": 0.0, "unit": "%"}, {"measurement": "drug in Microparticles", "setting": "[1]; [2]", "value": 100.0, "unit": "%"}, {"measurement": "drug in MCT Carrier", "setting": "[1]; [3]", "value": 0.0, "unit": "%"}, {"measurement": "drug in Microparticles", "setting": "[1]; [3]", "value": 100.0, "unit": "%"}, {"measurement": "drug in MCT Carrier", "setting": "[1]; [4]", "value": 0.0, "unit": "%"}, {"measurement": "drug in Microparticles", "setting": "[1]; [4]", "value": 100.0, "unit": "%"}, {"measurement": "drug in MCT Carrier", "setting": "[1]; [5]", "value": 0.0, "unit": "%"}, {"measurement": "drug in Microparticles", "setting": "[1]; [5]", "value": 100.0, "unit": "%"}]}
